Assay results taken from paper PMC5025780, “Copper(II) ions affect the gating dynamics of the 20S proteasome: a molecular and in cell study” (Scientific Reports, 2016).
Read-outs that look alike come from different tables or passages of the source.

Tests used:
[1] = system: T1, α3ΔN mutant 20S proteasome; experiment: ChT-L peptidase activity of α3ΔN open-gate mutant yeast proteasome; type: biochemical, Saccharomices Cerevisiae; details: permanently open gate mutant
T1 construct: made in house; host or cells: Saccharomyces cerevisiae (mutant strain)
Source text: All the experimental data collected so far reconcile with the hypothesis that Cu(II) ions have a direct influence on the gating mechanisms of the 20S proteasome. To further validate this hypothesis, we assayed the effect of Cu(II) ions on the ChT-L peptidase activity of a mutant proteasome (α3ΔN) where deletion of the first nine N terminal residues of the α3 subunit results in permanently open gate conformation. […] It is worthy to remark here that several histidine residues are located at the entrance of the channel and, more specifically in the proximity of the N-terminal tail of the α3 subunit (Fig. 4 panels B and C). It is tempting to speculate that these His residues may play a major role in driving the Copper(II) –mediated gating dynamics.
Purified human 20S proteasome (hCP) and the fluorogenic substrates Suc-LLVY-AMC, Z-Leu-Leu-Glu-AMC, and Ac-Arg-Leu-Arg-AMC used to assay the ChT-L, T-L, and C-L activity, were from Boston Biochem (Cambridge, MA, USA). Bathocuproinedisulfonic acid disodium salt (BCS), dithiothreitol (DTT), N-Acetyl-L-Cysteine (NAC), Sodium dodecylsulphate (SDS) as well as CuCl2 and Zn(NO3)2 were from Sigma-Aldrich (St. Louis, MO). Proteasome inhibitors Epoxomicin were obtained from Enzo Life Science. […]

[2] = system: ubiquitinated proteins in Hela cells; experiment: Western blot of polyubiquitinated proteins in HeLa cells; type: cell-based, human; details: 20 and 80 μM Cu(II), 24 hours
Protocol: After 24 h of copper(II) treatment (20–80 μM), HeLa cells were washed with cold PBS, and lysed with 100 μL of RIPA buffer for 5 minutes at 4 °C, sonicated and centrifuged for 10 minutes at 4 °C (1400 rpm). The protein content of lysates is quantified using the BCA method, (protein assay kit, BioRad). Western blotting analysis for polyUb chains was performed on total protein extracts ([…]). Samples were loaded onto 4–12% bis-Tris gel, (Invitrogen). After separation, proteins were transferred onto a nitrocellulose membrane. Membranes were blotted at 4 °C O/N with the following primary antibodies: rabbit monoclonal anti-polyubiquitin (linkage specific K48) (1:2500, Abcam), and mouse anti-β-actin (1:1000, Sigma Aldrich). Secondary goat anti-rabbit labeled with IRDye 680 (1:25.000 Li-COR Biosciences) and goat anti-mouse labeled with IRDye 800 (1:25.000 Li-COR Biosciences) were used at RT for 45 min. Hybridization signals were detected with the Odyssey Infrared Imaging System (LI-COR Biosciences).

[3] = biological target: T2, human 20S proteasome (hCP), T-L activity; experiment: T-L peptidase activity of isolated hCP (fluorogenic substrate); type: biochemical
T2 construct: purchased Boston Biochem (Cambridge, MA, USA)
Source text: (§1) Purified human 20S proteasome (hCP) and the fluorogenic substrates Suc-LLVY-AMC, Z-Leu-Leu-Glu-AMC, and Ac-Arg-Leu-Arg-AMC used to assay the ChT-L, T-L, and C-L activity, were from Boston Biochem (Cambridge, MA, USA). Bathocuproinedisulfonic acid disodium salt (BCS), dithiothreitol (DTT), N-Acetyl-L-Cysteine (NAC), Sodium dodecylsulphate (SDS) as well as CuCl2 and Zn(NO3)2 were from Sigma-Aldrich (St. Louis, MO). Proteasome inhibitors Epoxomicin were obtained from Enzo Life Science. Wild type 20S proteasome isolated from Saccharomices Cerevisiae (yCP) and a mutant (α3ΔN) where nine residues of the N-terminal tail of the α3 subunit are deleted to provide a permanently open-gate conformations were isolated as described elsewhere.
(§2) Peptidase activities of hCP (2 nM) were assayed on in 50 μL Tris 25 mM pH 7.6, at 37 °C with 100 μM of the fluorogenic substrate. hCP was incubated with Cu(II)/Zn(II) ions for 1 h prior activity assays. The fluorescence signal activated by peptide cleavage was recorded at 440 nm (excitation at 360 nm) for 45 min, by a Varioskan (Thermo^©) plate reader in 384 multiwell plates. Three replicates were performed for each data point. Data were reported as normalized percentages of residual activity. The potency (IC50) was calculated from the value of the dose response plot corresponding at a fractional activity of 50%. The IC50 values were determined using a non linear fit of experimental data in according to equation: […]
(§3) The midpoint of this function occurs at a fractional activity value of 50%, corresponding to half inhibition of the target enzyme. The IC50 values and their standard errors were deduced from the fitting. To evaluate if copper is a reversible PI, we measured the ChT-L activity of hCP incubated with Cu(II) (2.20 μM) before and after addition of an equimolar amount of EDTA.

[4] = biological target: T3, human 20S proteasome (hCP), ChT-L activity; experiment: ChT-L peptidase activity of isolated hCP (Suc-LLVY-AMC fluorogenic substrate); type: biochemical
T3 construct: purchased Boston Biochem (Cambridge, MA, USA)
Source text: as §1, §2, §3

[5] = system: T4, Wild type 20S proteasome (yCP); experiment: ChT-L peptidase activity of wild type yeast 20S proteasome (yCP); type: biochemical, Saccharomices Cerevisiae; details: one-way ANOVA, p < 0.05
T4 construct: made in house; host or cells: Saccharomyces cerevisiae
Source text: Figure 4 (A) Copper(II)-inhibited ChT-L peptidase activity of yCP (red bars) and the α3ΔN mutant (green bars); (pdb code: 4Q1S). […] (B) Top views of the α-rings of yCP. C); Magnified picture of the yCP gate. The first nine residues of the α3 subunit, which are not present in the α3ΔN mutant, are represented in magenta. Two histidines (α6-H14 and α1-H6) located at the entrance of the gate and near the N-terminal segment of the α3 subunit are evidenced in red. A third His residue (α3-H30) is far away from the gate and is not shown.
as §1

For `[Cl][Cu][Cl]` [Cu(II), CuCl2], the “Effect on ChT-L peptidase activity of α3ΔN mutant” value [1] was “did not affect proteasome activity”, the “Accumulation of ubiquitinated proteins” value [2] was “enhanced the accumulation of ubiquitinated proteins” and the IC50 ([3]; hCP 2 nM, 1 h preincubation with ions, Tris 25 mM pH 7.6, 37 °C, no SDS, read-out: IC50 T-L) was 1450 nM. The IC50 ([3]; in the presence of 0.018% SDS, other conditions unmodified, read-out: IC50 T-L, Cu(II) + SDS) was 1350 nM, the IC50 ([4]; hCP 2 nM, 1 h preincubation with ions, Tris 25 mM pH 7.6, 37 °C, no SDS, read-out: IC50 ChT-L) was 1190 nM and the “Recovery of ChT-L activity after EDTA addition (reversibility)” value ([4]; hCP incubated with Cu(II) 2.20 μM, equimolar EDTA added) was “did not evidence any recovery of the ChT-L activity”. The IC50 ([4]; in the presence of 0.018% SDS, other conditions unmodified, read-out: IC50 ChT-L, Cu(II) + SDS) was 730 nM and the “ChT-L activity of yCP at 5 μM versus 3 μM” value [5] was “significantly lower”.
